Experimental data published in patent publication US20060205597A1, “Weed-controlling mulching composition” (priority 2002, published 2006).

Tested on: Rumex obtusifolius, Trifolium repens, and Artemisia indica var. maximowiczii
Assay: Field test on bottom weed of an apple orchard
Type: in vivo
Conditions: after 3 months
From the text: On May 21, 5.0 liters per square meter (m^2) of a slurry obtained by mixing 15% of nonstoichiometric magnesia carbonate cement with 100 fold diluted solution of glyphosate was applied to the bottom weed of an apple orchard in Hirosaki city of Aomori prefecture. The kinds of the bottom weed included Rumex obtusifolius, Trifolium repens, and Artemisia indica var. maximowiczii and these grew to a height of 150 mm. As comparative sections, a glyphosate alone section and a no-glyphosate section were provided and after 3 months the state of growth of weeds was observed. […] From the viewpoint of the thickness of the weed, mixed application of the herbicide and the nonstoichiometric magnesia carbonate cement was very effective and the mixed treatment section inhibited the growth of the weeds until October.

## O=C(O)CNCP(=O)(O)O [glyphosate]
5.0 liters per square meter applied May 21
  state of growth of weeds: again grew
  height of regrown weed (spindly growth): 230 mm
